Measured values published in PubChem BioAssay (NCI).
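Cells were grown in 96-well plates and exposed to each compound for 48 hours at five concentrations; endpoints were interpolated linearly between bracketing concentrations, or set to the highest concentration if not reached. GI50 marks 50% less growth. TGI denotes the concentration required for complete inhibition of growth.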

How the values were obtained:
Assay in all cases: NCI tumour cell line growth inhibition, 48 h
786-0 renal = tested on: 786-0 renal
CAKI-1 renal = tested on: CAKI-1 renal
COLO 205 colon = tested on: COLO 205 colon
EKVX NSCLC = tested on: EKVX NSCLC
HCT-116 colon = tested on: HCT-116 colon
IGROV1 ovarian = tested on: IGROV1 ovarian
M14 melanoma = tested on: M14 melanoma
SF-268 CNS = tested on: SF-268 CNS
SK-MEL-28 melanoma = tested on: SK-MEL-28 melanoma
UACC-62 melanoma = tested on: UACC-62 melanoma

| SMILES | GI50 (786-0 renal) | TGI (786-0 renal) | GI50 (CAKI-1 renal) | TGI (CAKI-1 renal) | GI50 (COLO 205 colon) | TGI (COLO 205 colon) | GI50 (EKVX NSCLC) | TGI (EKVX NSCLC) | GI50 (HCT-116 colon) | TGI (HCT-116 colon) | GI50 (IGROV1 ovarian) | TGI (IGROV1 ovarian) | GI50 (M14 melanoma) | TGI (M14 melanoma) | GI50 (SF-268 CNS) | TGI (SF-268 CNS) | GI50 (SK-MEL-28 melanoma) | TGI (SK-MEL-28 melanoma) | GI50 (UACC-62 melanoma) | TGI (UACC-62 melanoma) |
| --- | --- | --- | --- | --- | --- | --- | --- | --- | --- | --- | --- | --- | --- | --- | --- | --- | --- | --- | --- | --- |
| O=c1[nH]cnc2c(C3OC(CO)C(O)C3O)scc12 (stereo not given) | > 100 µM | > 100 µM | 77.9 µM | > 100 µM | > 100 µM | > 100 µM | > 100 µM | > 100 µM | > 100 µM | > 100 µM | 73.5 µM | > 100 µM | 56.5 µM | > 100 µM | > 100 µM | > 100 µM | > 100 µM | > 100 µM | > 100 µM | > 100 µM |
| COc1cc(/C=C(/c2ccccc2)[N+](=O)[O-])c(OC)c2c1OCO2 | 1.62 µM | 3.05 µM | 1.76 µM | 3.95 µM | 1.98 µM | 4.25 µM | 1.69 µM | 3.32 µM | 1.3 µM | 3 µM | 1.16 µM | 2.6 µM | 1.56 µM | 3.3 µM | 1.84 µM | 3.92 µM | 1.47 µM | 2.84 µM | 1.44 µM | 2.98 µM |
| O=[N+]([O-])c1ccc(CS(=O)Cc2ccccc2)cc1 (stereo not given) |  | > 100 µM |  | > 100 µM |  | > 100 µM |  | > 100 µM |  | > 100 µM |  | > 100 µM |  | > 100 µM |  | > 100 µM |  | > 100 µM |  | > 100 µM |
| Fc1ccc(Nc2nccc(-c3c(-c4ccc(C(F)(F)F)cc4)nn4ncccc34)n2)cc1F | > 25 µM | > 25 µM | > 25 µM | > 25 µM | > 25 µM | > 25 µM | > 25 µM | > 25 µM | > 25 µM | > 25 µM | > 25 µM | > 25 µM | > 25 µM | > 25 µM | > 25 µM | > 25 µM | > 25 µM | > 25 µM | > 25 µM | > 25 µM |
| CCOC(=O)c1c(C)n(Cc2ccc(Cl)cc2Cl)c2c1cc1oc(=O)c(=O)n3c(Cc4ccccc4)nc2c13 | 5.18 µM | 19.2 µM | 2.69 µM | 9.36 µM | 4.65 µM | 25.3 µM | 8.05 µM | 20.8 µM | 2.05 µM | 4.87 µM | 2.11 µM | 15.2 µM | 13 µM | 36.7 µM | 2.31 µM | 5.84 µM | 11 µM | 24.9 µM | 14.5 µM | 28.2 µM |
| CC(=O)C1=C([O-])C(C)OC1=O.CC(=O)C1=C([O-])C(C)OC1=O.[NH-]C1CCCC[C@H]1[NH-].[Pt+4] (stereo not given) | 9.67 µM | > 100 µM | 35.9 µM | > 100 µM | 35.1 µM | > 100 µM | > 100 µM | > 100 µM | 45.6 µM | > 100 µM | > 100 µM | > 100 µM | 85.3 µM | > 100 µM | > 100 µM | > 100 µM | 43.8 µM | > 100 µM | 42.3 µM | > 100 µM |
| CCOC(=O)/C(C#N)=C1\N[C@H](C(=O)OCC)CO1 |  | > 100 µM |  | > 100 µM |  | > 100 µM |  | > 100 µM |  | > 100 µM |  | > 100 µM |  | > 100 µM |  | > 100 µM |  | > 100 µM |  | > 100 µM |
| Cc1ncc([N+](=O)[O-])n1CCNC(=O)CCCn1cnc([N+](=O)[O-])n1 |  | > 100 µM |  | > 100 µM |  | > 100 µM |  | > 31.6 µM |  | > 100 µM |  | > 100 µM |  | > 100 µM |  | > 100 µM |  | > 100 µM |  | > 100 µM |
| O=c1oc2ccc(Cl)cc2c(=O)n1-c1ccc(I)cc1F | 1.36 µM | 4.13 µM | 0.172 µM | 1.02 µM | 7 µM | 19.7 µM | 0.444 µM | 4.98 µM | 0.255 µM | 1.35 µM | 0.19 µM | > 42.3 µM | 0.165 µM | 1.4 µM | 0.26 µM | 4.11 µM | 0.178 µM | 2.01 µM | 0.104 µM | 0.788 µM |
| COc1cc2cc(Oc3ccc(NC(=O)c4ccc(Cl)c(C(F)(F)F)c4)cc3)c(C)nc2cc1OC | 12.1 µM | > 100 µM | 4.19 µM | 46.2 µM | 11.2 µM | 24 µM | 5.76 µM | 83.3 µM | 4.18 µM | 88.9 µM | 35.5 µM | > 100 µM | 9.55 µM | > 100 µM | 37.2 µM | > 100 µM | 30.3 µM | > 100 µM | 18.2 µM | > 100 µM |
| CC1=CC(=O)C(C(C)=Nc2ccccc2Cl)C(=O)O1 (stereo not given) | > 100 µM | > 100 µM | > 100 µM | > 100 µM | > 100 µM | > 100 µM | > 100 µM | > 100 µM | > 100 µM | > 100 µM | 76.2 µM | > 100 µM | > 100 µM | > 100 µM | > 100 µM | > 100 µM | > 100 µM | > 100 µM | > 100 µM | > 100 µM |
